Results reported in patent US20220015361A1, “COMPOSITIONS COMPRISING HALAUXIFEN AND OTHER HERBICIDES AND METHODS THEREOF” (DOW AGROSCIENCES LLC, priority 2018, published 2022).

Test system: ERISU (Conyza sumatrensis, Sumatran fleabane)
Assay: greenhouse post-emergence foliar weed control, visual score 0-100 percent
Format: in vivo
Conditions: 49 gai/ha
Text: Results in Examples are greenhouse trial results.
Seeds or nutlets of the desired test plant species were planted in a soil matrix prepared by mixing a loam or sandy loam soil (e.g., 28.6 percent silt, 18.8 percent clay, and 52.6 percent sand, with a pH of about 5.8 and an organic matter content of about 1.8 percent) and calcareous grit in an 80 to 20 ratio. The soil matrix was contained in plastic pots with a volume of 1 quart and a surface area of 83.6 cm2. When required to ensure good germination and healthy plants, a fungicide treatment and/or other chemical or physical treatment was applied. The plants were grown for 8-22 days in a greenhouse with an approximate 14 h photoperiod which was maintained at about 29° C. during the day and 26° C. during the night. Nutrients (Peters Excel® 15-5-15 5-Ca 2-Mg and iron chelate) were applied in the irrigation solution as needed and water was added on a regular basis. Supplemental lighting was provided with overhead metal halide 1000-Watt lamps as necessary. The plants were employed for testing when they reached the first through fourth true leaf stage.
Treatments comprised of the acid or esters of halauxifen-methyl (methyl 4-amino-3-chloro-6-(4-chloro-2-fluoro-3-methoxyphenyl)picolinate), each formulated as an SC (suspension concentrate), and various herbicidal components alone and in combination. A form of the compound of Formula I were applied on an acid equivalent basis.
Treatment requirements were calculated based upon the rates being tested, the concentration of active ingredient or acid equivalent in the formulation, and a 12 mL application volume at a rate of 187 L/ha.
For treatments comprised of formulated and technical compounds, weighed amounts of the technical materials were placed individually in 25 mL glass vials and dissolved in a volume of 97:3 v/v acetone/DMSO to obtain 12× stock solutions, and measured amounts of the formulated compounds were placed individually in 25 mL glass vials and diluted in a volume of 1.5% (v/v) crop oil concentrate or water to obtain 12× stock solutions. […] As required, additional water and/or 97:3 v/v acetone/DMSO was added to individual application solutions so that the final acetone and DMSO concentrations of the application solutions being compared were 8.1% and 0.25%, respectively.
All stock solutions and applications solutions were visually inspected for compound compatibility prior to application. Spray solutions were applied to the plant material with an overhead Mandel track sprayer equipped with an 8002E nozzle calibrated to deliver 187 L/ha over an application area of 0.503 m2 at a spray height of 18 to 20 inches (46 to 50 cm) above average plant canopy height. Control plants were sprayed in the same manner with the solvent blank.
The treated plants and control plants were placed in a greenhouse as described above and watered by sub-irrigation to prevent wash-off of the test compounds. […]
Table 1 illustrates weed control for foliar applications of compositions comprising halauxifen-methyl+2,4-D-dimethylammonium (2,4-D-DMA)+saflufenacil on various broadleaf weeds. […] The compositions disclosed herein can be used in burndown and fallow crop applications or in herbicide tolerant crops. These compositions can be used for broad-spectrum control of broadleaf weeds including, but not limited to, ALS, auxinic, HPPD, PPO, saflufenacil and glyphosate resistant broadleaf weeds. The compositions disclosed herein can have utility in AAD1 and AAD12 monocot and dicot crops whereby there is crop tolerance to all 3 modes of action, providing growers with a solution to control susceptible and resistant broadleaf weeds, as well as to delay the development of resistance by the use of 3 modes of action product. The compositions disclosed herein can be used in non-crop and R&P/IVM situations, post directed in perennial crops, and potentially across many crops where there is tolerance to all 3 modes of action.

CC(C)N(C)S(=O)(=O)NC(=O)c1cc(-n2c(=O)cc(C(F)(F)F)n(C)c2=O)c(F)cc1Cl [saflufenacil, 2-chloro-5-[3,6-dihydro-3-methyl-2,6-dioxo-4-(trifluoromethyl)-1(2H)-pyrimidinyl]-4-fluoro-N-[[methyl(1-methylethyl)amino]sulfonyl]benzamide]
Chem 2 Actual Mean % Weed Control (Trial 1, ERISU, 17DAA): 52.50%
Chem 2 Actual Mean % Weed Control (Trial 1, ERISU, 28DAA): 66.25%
Chem 2 Actual Mean % Weed Control (Trial 1, ERISU, 43DAA): 77.50%
Chem 2 Actual Mean % Weed Control (Trial 2, ERISU, 17DAA): 66.25%
Chem 2 Actual Mean % Weed Control (Trial 2, ERISU, 28DAA): 97.50%
Chem 2 Actual Mean % Weed Control (Trial 2, ERISU, 43DAA): 98.25%
